Key:
[1] = tested on: adenosine aggregates in ADA deficient LCLs; assay: Aggregation assay (Proteostat, FACS) on ADA deficient LCLs; format: cell-based, human; conditions: patient derived lymphoblastoids, adenosine, 19 concentrations from 50 μM to 0.003 μM
Description: 24 hours after seeding in full medium cells were washed with medium without serum and placed in medium without serum. Following 72 hours of incubation with or without Adenosine (A9251 SIGMA) (200 ug/ml), cells were washed with PBS and stained for adenosine aggregates with Proteostat dye (ENZ-51023-KP002). Proteostat concentration was 1:3000 of diluted stock. Following 15 minutes' incubation, cells were washed with PBS and mean fluorescence was measured with FACS.
Cells were treated with adenosine alone or with adenosine with compounds. Compound activity was tested in 19 concentrations in range from 50 uM to 0.003 uM.
Readouts: Proteostat Fluorescence intensity was measured with FACS at 2 excitation wavelengths: 488 nm and 550 nm. Emission wavelength was 600 nm.
24 hours after seeding in 96 round bottom plates in full medium cells were washed once with medium without serum and placed in medium without serum. Following 72 hours of incubation with or without Adenosine (200 ug/ml) and with or without purpurin (2 uM), cells were washed once with PBS and stained for adenosine aggregates with Proteostat dye (Enzo Life Sciences). Proteostat concentration was 1:4000 of diluted stock. Following 15 minutes incubation, cells were washed with PBS and mean flow cytometry was preformed using Stratedigm S1000EXi and the CellCapTure software (Stratedigm, San Jose, Calif.). Analyses were performed using FlowJo software (TreeStar, version 10).
For quantification of intracellular adenosine aggregates by FACS analyses, 100,000 cells were seeded in 96 well plates in full medium. After 24 hours, cells were centrifuged, washed once and added with serum free medium with or without Adenosine (200 μg/ml). After incubation of 72 hours cells were washed with PBS and stained for adenosine aggregates with Proteostat dye. Following 15 minutes incubation, cells were washed with PBS and mean fluorescence was measured with FACS. Mean cell fluorescence of every cell line was normalized to its signal without adenosine and data is presented as percentage of aggregates.

[2] = tested on: aah1Δapt1Δ strain; assay: Yeast growth assay of adenine salvage mutant with adenine feeding; format: cell-based, Saccharomyces cerevisiae
Description: (§1) Strains were grown over night at 30° C. in SD medium without adenine. For spotting assays, strains were diluted to 6.25*10^7 cells/mL and were then 5-fold serially diluted and spotted on SD media with the indicated concentrations of adenine or TA (Sigma-Aldrich). Plates were incubated at 30° C. for 2 days. […] For OD600 measurements, strains were diluted to OD600 0.01, 200 μL of cells were platted on 96 wells plates and incubated at 30° C. for 25 hours with continuous shaking. OD600 was measured using Tecan™ SPARK 10M plate reader.
For the percentage of growth analysis (FIG. 10B and FIG. 13A), OD600 was measured when cells reached log phase. The percentage of growth represents the growth with TA compared to the growth without TA.

[3] = tested on: GABAA receptor; conditions: general description; cited from earlier work
[4] = tested on: cys4Δ strain; assay: Yeast growth assay of cys4Δ mutant with homocysteine; format: cell-based, Saccharomyces cerevisiae; conditions: compared to the wild-type strain, 20, 40, 80 mg/L
Description: FIG. 27E: WT and cys4Δ strains diluted to OD600 0.01 were grown in SD media containing 13 mg/L cysteine and 80 mg/L homocysteine in the under the indicated conditions. 0.3 mM TA was added to the samples at different OD600. The percentage of growth represents the growth the indicated condition compared to the growth of WT without TA. *P<0.05 (Student's t-test).
Homocystinuria results from cystathionine beta synthase (CBS) deficiency, leading to excess of Hcy. A knockout mutation in CYS4, the highly-conserved functional yeast ortholog of the human cystathionine beta synthase (CBS) known to be essential for Hcy salvage, was therefore generated. Due to the contribution of this enzyme to cysteine biosynthesis, it was first shown that its absence confers cysteine dependence (FIG. 27A). […] To examine whether the observed toxicity was associated with the in vivo formation of amyloid-like assemblies, the cells were stained with the amyloid-specific fluorescent dye ProteoStat which allows to detect intracellular amyloid fibrils. […] Next, to further establish the amyloid-like nature of the aggregates, the fibrillation-modifying polyphenolic compound tannic acid (TA) was used (FIG. 27E).

[5] = tested on: adenine fibrils; assay: ThT assay of adenine self-assembly inhibition in vitro; conditions: for amyloids staining (ThT, end point): adenine 8 mg/ml in PBS with inhibitor
Description: Adenine was dissolved at 90° C. in PBS to a final concentration of 8 mg/ml and mixed with the indicated inhibitor, at the indicated concentrations, or with PBS as a control, followed by addition of ThT in PBS. ThT emission data at 480 nm (excitation at 450 nm) were measured at the end point.
Adenine was dissolved to a final concentration of 8 mg/ml at 90° C. in PBS. The solution was plated on a 96-well black plate and mixed with the inhibitor baicalein at the stated concentration, and with 20 μm ThT (final concentration). Fluorescence (excitation at 450 nm, emission at 480 nm) was recorded over time using a Tecan™ Infinite® 200 PRO plate reader. Data processing was performed using the OriginLab software.
To further examine if the compounds specifically target the adenosine amyloid-like structures. the compounds were tested using adenine in-vitro aggregation assay. Adenine was self-assembled with and without the inhibitors and stained with the amyloids dye, Thioflavin T (ThT). […] More specifically. Adenosine (30 mg/mL) and guanosine (3 mg/ml) were dissolved in PBS at 90° C., followed by the addition of ThT at final concentration of 20 μM. ThT emission data at 480 nm (excitation at 450 nm) was measured over time. TEM images show elongated adenosine fibrils (10 mg/mL) and guanosine fibrils (1 mg/mL) (FIGS. 34A and 34B, respectively). ThT fluorescence assay of adenosine and guanosine assemblies, are shown by FIGS. 34C, and 34D respectively.

[6] = tested on: fah-1 RNAi treated worms; assay: C. elegans model for Tyrosinemia (fah-1 RNAi); format: in vivo, Caenorhabditis elegans; conditions: tyrosine added to fah-1 silenced worms
Description: (§2) Wild-type N2, RB857 and NL2099 worms were obtained from the Caenorhabditis Genetics Center. RNAi clones was obtained from the Ahringer RNAi library as previously described [Fisher A L, et al., J. Biol. Chem. 283: 9127-9135(2008)]. Worms were grown on NGM media without peptone and the metabolites were added into a boiling media. Baicalein and EGCG were added to a media after cooled down to 45 degrees.
Mutations in different enzymes that are involved in the tyrosine degradation pathway are responsible for different types of Tyrosinemia. The tyrosine degradation pathway in mammals and C. elegans in conserved and the most severe is type I Tyrosinemia, which is caused by mutations affecting the last enzyme in the pathway, fumarylacetoacetate hydrolase (FAH). To study Tyrosinemia in C. elegans model, an RNAi was used that specifically silences the fumarylacetoacetate hydrolase (fah-1), as was previously reported (K10C4.2). RNAi directed against fah-1 causes severe phenotype of reduced size, impaired fertility and reduction of total number of viable worms (FIG. 32).

[7] = tested on: aro3Δ mutant; assay: Yeast growth assay of aro3Δ mutant with tyrosine feeding; format: cell-based, Saccharomyces cerevisiae; conditions: 4a.a SD medium with tyrosine
Description: as §1
The focus was put on a strain with a deletion of the ARO3 gene in which a significant decrease in cellular growth was observed upon tyrosine feeding (see FIG. 21). The inventors aimed to determine whether the toxic effect was influenced by different levels of tyrosine. Thus, the cellular growth of wild-type and the aro3Δ mutant was examined by serial dilutions on selective plates that were supplemented with different concentrations of tyrosine (FIG. 21A). In addition, cellular growth was also examined by measuring the turbidity of the medium upon addition of the indicated concentration of tyrosine (FIG. 21B). […] Thus, cell growth is affected by tyrosine levels in a dose-dependent manner which further supports the notion that the toxicity in the aro3Δ mutant results from the presence of tyrosine.
In order to examine the effect of EGCG on cell growth, the aro3Δ mutant was spotted on 4a.a SD plates that contained tyrosine alone or tyrosine with different concentrations of EGCG. […] Thus, the lag phase in the presence of EGCG was nearly the same as cells unexposed to tyrosine, indicating the potent ability of EGCG to eliminate the tyrosine sensitivity of the aro3Δ mutant. […] Next, the inventors aimed to gain additional insights into the effect of EGCG on the amyloid-like fibrils formed by the accumulation of tyrosine in the aro3Δ mutant cells. For that purpose, cells were stained with the amyloid-specific dye ProteoStat®, and FACS was applied to detect tyrosine aggregates. […] (FIG. 25).

[8] = tested on: phenylalanine assemblies; conditions: reference [4]; cited from earlier work
[9] = tested on: RB857 (PAH-1 mutant) and N2 (WT) worms; assay: C. elegans model for PKU; format: in vivo, Caenorhabditis elegans; conditions: 100 mM phenylalanine in minimal media, Baicalein added
Description: as §2
To study PKU in C. elegans model, a strain was used with mutation in the PAH-1 gene (RB857)]. […] Next, the effect of one of the previously identified hits i.e. baicalein was examined on the development of worms. The life cycle of C. elegans is comprised of the embryonic stage, four larval stages (L1-L4) and adulthood. The end of each larval stage is marked with a molt, during which a new, stage-specific cuticle is synthesized and the old one is shed.

[10] = tested on: lipoxygenases; conditions: general description; cited from earlier work
[11] = target: estrogen receptor (Homo sapiens, UniProt P03372); conditions: general description; cited from earlier work
[12] = target: CYP2C9 (Homo sapiens, UniProt P11712); conditions: general description; cited from earlier work
CYP2C9, sequence (P11712 whole entry): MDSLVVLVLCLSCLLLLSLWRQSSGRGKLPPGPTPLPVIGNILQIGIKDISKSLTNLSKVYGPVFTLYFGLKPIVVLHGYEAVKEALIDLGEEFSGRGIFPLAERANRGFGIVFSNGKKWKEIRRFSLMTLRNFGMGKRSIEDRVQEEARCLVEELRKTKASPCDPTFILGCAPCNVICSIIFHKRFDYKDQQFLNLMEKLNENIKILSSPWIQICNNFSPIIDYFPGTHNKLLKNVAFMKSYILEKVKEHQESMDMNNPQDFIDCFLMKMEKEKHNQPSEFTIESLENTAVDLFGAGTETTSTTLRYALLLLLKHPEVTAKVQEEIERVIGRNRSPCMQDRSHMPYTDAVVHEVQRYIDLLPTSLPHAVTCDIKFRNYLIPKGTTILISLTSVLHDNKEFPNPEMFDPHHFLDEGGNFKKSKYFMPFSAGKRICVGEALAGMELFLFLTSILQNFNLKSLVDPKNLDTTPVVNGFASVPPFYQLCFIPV

estrogen receptor, sequence (P03372 whole entry, species assumed): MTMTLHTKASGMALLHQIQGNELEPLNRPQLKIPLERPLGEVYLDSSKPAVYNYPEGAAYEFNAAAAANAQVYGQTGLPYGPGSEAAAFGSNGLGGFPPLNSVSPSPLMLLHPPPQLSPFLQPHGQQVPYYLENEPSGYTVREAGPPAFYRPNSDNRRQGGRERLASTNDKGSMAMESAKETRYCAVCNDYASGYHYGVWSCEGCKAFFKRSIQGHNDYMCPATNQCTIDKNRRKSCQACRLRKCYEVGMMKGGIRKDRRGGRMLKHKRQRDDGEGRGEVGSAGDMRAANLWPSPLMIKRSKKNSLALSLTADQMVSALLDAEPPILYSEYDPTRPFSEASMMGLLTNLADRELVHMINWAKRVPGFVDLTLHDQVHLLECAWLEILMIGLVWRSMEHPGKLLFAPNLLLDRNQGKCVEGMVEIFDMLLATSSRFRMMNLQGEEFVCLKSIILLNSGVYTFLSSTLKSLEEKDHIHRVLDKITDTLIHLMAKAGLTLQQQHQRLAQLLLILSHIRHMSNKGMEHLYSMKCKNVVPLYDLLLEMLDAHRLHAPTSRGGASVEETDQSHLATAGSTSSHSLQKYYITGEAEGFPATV

O=C1c2ccccc2C(=O)c2c1ccc(O)c2O [Alizarin, 1,2-Dihydroxyanthracene-9,10-dione]
formation of adenosine aggregates (aggregation level, Proteostat staining) [1]: significantly reduce the aggregation level
formation of adenosine aggregates (aggregation level, Proteostat staining) ([1]; listed as alizarin): inhibited the formation of these aggregates

Nc1ncnc2nc[nH]c12 [adenine, Adenine]
cell growth with increasing adenine levels in the medium ([2]; SD medium, adenine up to 40 mg/L): decreased cell growth in a dose-dependent manner

O=C(O)[C@H]1O[C@@H](Oc2cc3oc(-c4ccccc4)cc(=O)c3c(O)c2O)[C@H](O)[C@@H](O)[C@@H]1O [baicalin, reference compound]
modulation of the benzodiazepine site and/or a non-benzodiazepine site of the GABAA receptor [3]: positive allosteric modulator

N[C@@H](CCS)C(=O)O [Hcy, homocysteine]
growth of CYS4 mutant with Hcy in the growth medium [4]: sensitivity

O=C1c2ccc(O)c(O)c2C(=O)c2c(O)ccc(O)c21 [Quinalizarin, 1,2,5,8-Tetrahydroxyanthracene-9,10-dione]
formation of adenosine aggregates (aggregation level, Proteostat staining) [1]: significantly reduce the aggregation level
formation of adenosine aggregates (aggregation level, Proteostat staining) ([1]; listed as quinalizarin): inhibited the formation of these aggregates
amyloids staining (ThT, end point) [5]: significantly reduced the amyloids staining

N[C@@H](Cc1ccc(O)cc1)C(=O)O [tyrosine]
size, fertility and total number of viable worms [6]: severe decline in all the observed phenotypes
growth of aro3Δ mutant with increasing tyrosine concentration [7]: increase of growth inhibition

C[C@H]1c2cccc(O)c2C(=O)C2=C(O)[C@]3(O)C(=O)C(C(N)=O)=C(O)[C@@H](N(C)C)[C@@H]3[C@@H](O)[C@@H]21 [doxycycline]
phenylalanine aggregation and cytotoxicity of the assemblies in vitro [8]: counteract

O=c1cc(-c2ccccc2)oc2cc(O)c(O)c(O)c12 [Baicalein, 5,6,7-Trihydroxy-2-phenyl-chromen-4-one]
modulation of the benzodiazepine site and/or a non-benzodiazepine site of the GABAA receptor [3]: positive allosteric modulator
total number of worms ([9]; N2 and RB857): beneficial effect on both strains
development of worms (reaching adulthood) ([9]; RB857 and WT): dramatic beneficial effect on both strains
formation of adenosine aggregates (aggregation level, Proteostat staining) [1]: significantly reduce the aggregation level
formation of adenosine aggregates (aggregation level, Proteostat staining) ([1]; listed as baicalein): inhibited the formation of these aggregates
inhibition of certain types of lipoxygenases [10]: inhibit
yeast cell growth ([2]; 2 mg/L adenine, baicalein 2.5, 5, 10 μM): significant effect on yeast cell growth
activity at the estrogen receptor [11]: antagonist
adenine self-assembly in vitro (ThT fluorescence over time) ([5]; 8 mg/ml adenine, baicalein 5, 10, 100, 500 μM): dose-dependent inhibition of adenine self-assembly in vitro
amyloids staining (ThT, end point) [5]: significantly reduced the amyloids staining
inhibition of CYP2C9 [12]: inhibitor
